Tests used:
Type in all cases: in vivo
[1] = test system: pigweed (Amaranthus retroflexus); assay: Test A postemergence; conditions: Amaranthus retroflexus, post-emergence, 240 h, Postemergence, read-out: Plant response rating, Pigweed
Summary of the method: (§1)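 Visual injury scores from 0, no effect, to 100, complete control, were assigned versus untreated controls roughly 10 d after treatment in the greenhouse. Test chemicals, formulated with surfactant in a non-phytotoxic solvent, were applied to planted seeds as a preemergence soil spray or postemergence to one- to two-leaf plants 2 to 10 cm tall, in loam–sand soil.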

corn (Zea mays) = assay: Test A postemergence; conditions: Zea mays, post-emergence, 240 h, Postemergence
Summary of the method: as §1

[2] = test system: ryegrass, Italian (Italian ryegrass, Lolium multiflorum); assay: Test A postemergence; conditions: Lolium multiflorum, post-emergence, 240 h, Postemergence, read-out: Plant response rating, Ryegrass, Italian
Summary of the method: as §1

[3] = test system: Galium (catchweed bedstraw, Galium aparine); assay: Test A postemergence; conditions: Galium, post-emergence, 240 h, Postemergence, read-out: Plant response rating, Galium
Summary of the method: as §1

[4] = test system: wheat (Triticum aestivum); assay: Test A postemergence; conditions: Triticum aestivum, post-emergence, 240 h, Postemergence, read-out: Plant response rating, Wheat
Summary of the method: as §1

[5] = test system: blackgrass (Alopecurus myosuroides); assay: Test A postemergence; conditions: Alopecurus myosuroides, post-emergence, 240 h, Postemergence, read-out: Plant response rating, Blackgrass
Summary of the method: as §1

[6] = test system: giant foxtail (Setaria faberii); assay: Test A postemergence; conditions: Setaria faberi, post-emergence, 240 h, Postemergence, read-out: Plant response rating, Foxtail, Giant
Summary of the method: as §1

[7] = test system: ragweed (common ragweed, Ambrosia elatior); assay: Test A postemergence; conditions: Ambrosia artemisiifolia, post-emergence, 240 h, Postemergence, read-out: Plant response rating, Ragweed
Summary of the method: as §1

Kochia (Kochia scoparia) [8] = assay: Test A postemergence; conditions: Bassia scoparia, post-emergence, 240 h, Postemergence, read-out: Plant response rating, Kochia
Summary of the method: as §1

[9] = test system: barnyardgrass (Echinochloa crus-galli); assay: Test A postemergence; conditions: Echinochloa crus-galli, post-emergence, 240 h, Postemergence, read-out: Plant response rating, Barnyardgrass
Summary of the method: as §1

[10] = test system: ducksalad (Heteranthera limosa); assay: Test B flooded paddy test; conditions: Heteranthera limosa, 250 g ai/ha, Flood; 0 to 100 scale where 0 is no effect and 100 is complete control; read-out: Ducksalad plant response rating
Summary of the method: (§2)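 Rating scale 0–100 (visual, vs untreated controls) after a 13–15 d greenhouse period; application to the flood layer, 3 cm above soil and maintained; plants at 2-leaf stage when treated.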

rice (Oryra sativa) = assay: Test B flooded paddy test; conditions: Oryza sativa, 250 g ai/ha, Flood; 0 to 100 scale where 0 is no effect and 100 is complete control; read-out: Rice plant response rating
Summary of the method: as §2

[11] = test system: sedge, umbrella (small-flower umbrella sedge, Cyperus difformis); assay: Test B flooded paddy test; conditions: Cyperus difformis, 250 g ai/ha, Flood; 0 to 100 scale where 0 is no effect and 100 is complete control; read-out: Sedge, Umbrella plant response rating
Summary of the method: as §2

[12] = test system: barnyardgrass (Echinochloa crus-galli); assay: Test B flooded paddy test; conditions: Echinochloa crus-galli, 250 g ai/ha, Flood; 0 to 100 scale where 0 is no effect and 100 is complete control; read-out: Barnyardgrass plant response rating
Summary of the method: as §2

[13] = test system: pigweed (Amaranthus retroflexus); assay: Test A preemergence; conditions: Amaranthus retroflexus, pre-emergence, 240 h, Preemergence
[14] = test system: ryegrass, Italian (Italian ryegrass, Lolium multiflorum); assay: Test A preemergence; conditions: Lolium multiflorum, pre-emergence, 240 h, Preemergence
Summary of the method: as §1

[15] = test system: giant foxtail (Setaria faberii); assay: Test A preemergence; conditions: Setaria faberi, pre-emergence, 240 h, Preemergence
Summary of the method: as §1

[16] = test system: ragweed (common ragweed, Ambrosia elatior); assay: Test A preemergence; conditions: Ambrosia artemisiifolia, pre-emergence, 240 h, Preemergence
Summary of the method: as §1

Kochia (Kochia scoparia) [17] = assay: Test A preemergence; conditions: Bassia scoparia, pre-emergence, 240 h, Preemergence
Summary of the method: as §1

[18] = test system: barnyardgrass (Echinochloa crus-galli); assay: Test A preemergence; conditions: Echinochloa crus-galli, pre-emergence, 240 h, Preemergence
Summary of the method: as §1

[19] = 125 g ai/ha, visual injury after approximately 10 d, 0 to 100 scale where 0 is no effect and 100 is complete control
[20] = 31 g ai/ha, visual injury after approx. 10 d, 0 to 100 scale, 0 no effect, 100 complete control

O=C(Nc1cccc(Cl)c1F)[C@H]1C(=O)N(C2CC2)CC[C@@H]1c1ccc(F)cc1 [Compound 1006]
pest or weed control at 125 g/ha [1, 19]: 0%
pest or weed control at 31 g/ha [1, 20]: 0%
Corn plant response rating (crop injury, 0 = no effect, 100 = complete kill) at 125 g/ha (corn (Zea mays); [19]): 10%
Corn plant response rating (crop injury, 0 = no effect, 100 = complete kill) at 31 g/ha (corn (Zea mays); [20]): 0%
pest or weed control at 125 g/ha [2, 19]: 0%
pest or weed control at 31 g/ha [2, 20]: 0%
pest or weed control at 125 g/ha [3, 19]: 0%
pest or weed control at 31 g/ha [3, 20]: 0%
plant injury at 125 g/ha [4, 19]: 0%
plant injury at 31 g/ha [4, 20]: 0%
pest or weed control at 125 g/ha [5, 19]: 0%
pest or weed control at 31 g/ha [5, 20]: 0%
pest or weed control at 125 g/ha [6, 19]: 0%
pest or weed control at 31 g/ha [6, 20]: 0%
pest or weed control at 125 g/ha [7, 19]: 10%
pest or weed control at 31 g/ha [7, 20]: 10%
pest or weed control at 125 g/ha (Kochia (Kochia scoparia) [8]; [19]): 0%
pest or weed control at 31 g/ha (Kochia (Kochia scoparia) [8]; [20]): 0%
pest or weed control at 125 g/ha [9, 19]: 0%
pest or weed control at 31 g/ha [9, 20]: 0%
pest or weed control at 250 g/ha [10]: 0%
pest or weed control at 250 g/ha (rice (Oryra sativa)): 0%
pest or weed control at 250 g/ha [11]: 0%
pest or weed control at 250 g/ha [12]: 0%
pest or weed control at 31 g/ha ([13]; 31 g ai/ha, 0 to 100 scale where 0 is no effect and 100 is complete control, read-out: Pigweed plant response rating): 0%
pest or weed control at 125 g/ha ([13]; 125 g ai/ha, visual injury rating after approximately 10 d, read-out: Pigweed plant response rating (0 to 100 scale, 0 is no effect, 100 is complete control)): 0%
pest or weed control at 31 g/ha ([14]; 31 g ai/ha, 0 to 100 scale where 0 is no effect and 100 is complete control, read-out: Ryegrass, Italian plant response rating): 0%
pest or weed control at 125 g/ha ([14]; 125 g ai/ha, visual injury rating after approximately 10 d, read-out: Ryegrass, Italian plant response rating (0 to 100 scale, 0 is no effect, 100 is complete control)): 0%
pest or weed control at 125 g/ha ([15]; 125 g ai/ha, visual injury rating after approximately 10 d, read-out: Foxtail, Giant plant response rating (0 to 100 scale, 0 is no effect, 100 is complete control)): 0%
pest or weed control at 31 g/ha ([15]; 31 g ai/ha, 0 to 100 scale (0 no effect, 100 complete control), read-out: Plant response rating, Foxtail, Giant): 0%
pest or weed control at 31 g/ha ([16]; 31 g ai/ha, 0 to 100 scale where 0 is no effect and 100 is complete control, read-out: Ragweed plant response rating): 0%
pest or weed control at 125 g/ha ([16]; 125 g ai/ha, visual injury rating after approximately 10 d, read-out: Ragweed plant response rating (0 to 100 scale, 0 is no effect, 100 is complete control)): 0%
pest or weed control at 31 g/ha (Kochia (Kochia scoparia) [17]; 31 g ai/ha, 0 to 100 scale where 0 is no effect and 100 is complete control, read-out: Kochia plant response rating): 0%
pest or weed control at 125 g/ha (Kochia (Kochia scoparia) [17]; 125 g ai/ha, visual injury rating after approximately 10 d, read-out: Kochia plant response rating (0 to 100 scale, 0 is no effect, 100 is complete control)): 0%
pest or weed control at 125 g/ha ([18]; 125 g ai/ha, visual injury rating after approximately 10 d, read-out: Barnyardgrass plant response rating (0 to 100 scale, 0 is no effect, 100 is complete control)): 0%
pest or weed control at 31 g/ha ([18]; 31 g ai/ha, 0 to 100 scale (0 no effect, 100 complete control), read-out: Plant response rating, Barnyardgrass): 0%
